Results on one compound are retold here after patent US20230041065A1, “METHODS FOR GENERATING HEMATOPOIETIC STEM CELLS” (The Brigham and Women`s Hospital, Inc., priority 2019, published 2023).

In assay [1] the test system is E11.5 AGM cells. The experiment in a line: Hematopoietic CFU and FACS assays on E11.5 AGM cells. The class given is cell-based, mouse. The method, then:
Pulsating blood vessels like conditions were stimulated in vitro using Flexcell FX-4000 machine. To analyze roles of pharmacological targets in regulating the endothelial-to-HSC transition, mouse embryo-derived AGM or whole mouse embryo were exposed ex vivo with biomechanical stretching, chemicals, or drugs. Next, hematopoietic colony formation assays were performed by incubating mouse AGM-derived cells in StemCell M3434 media for seven days. Serial transplantation of AGM-derived HSCs in lethally irradiated SJL mice were performed. The stem cell frequency upon biomechanical stretching was analyzed using a limiting dilution assay. To characterize properties of AGM-HSC-derived blood cells in primary transplants, percentage chimerism and reconstitution was measured using FACS, globin transcripts were analyzed using quantitative reverse transcriptase-PCR, myeloperoxidase amount was measured using PicoKine ELISA kit, TCR-β rearrangement was analyzed using PCR for TCR-β locus, pre-immune IG detection was analyzed using Thermo-Fisher Mouse Ig Isotyping kit, and delayed-type hypersensitivity was analyzed by injecting sheep RBC (Rockland Immunochemicals) in the footpad of pre-sensitized mice. E11.5 AGM were harvested from C57BL6/J Cd45.2 mouse embryos, and a single cell suspension of a three-embryo equivalent of cells was seeded on each well of a BioFlex six-well culture plate ([…]). We cultured cells overnight with the application of cyclic strain (Flexcell® FX4000TM Tension System) and/or treatment with chemical modulators (2-100 μM Yoda1, 1 μM Nanaomycin, 100 μM Gdcl3, 1 uM GsMT×4, 5-20 μM 4αPDD, 10 uM GSK205). Next, harvested cells were used to perform transplant, fluorescence-activated cell sorting (FACS) analysis, and colony-forming unit (CFU) assays. For CFU assays, cells from AGM explant or ex vivo were plated in MethoCult GF M3434 media (StemCell Technologies). Seven days after seeding, we analyzed their capacity to make granulocyte, erythroid, macrophage, megakaryocyte (GEMM), granulocyte macrophage (GM), granulocyte (G), macrophage (M), and erythroid (E) colonies.
On the technique in general: A flow cytometer gives signals particle by particle.

The subject of assay [2] is E11.5 AGM cells. Kind of assay: Whole transcriptome (RNA-seq) analyses of treated E11.5 AGM cells. The class given is cell-based, mouse. The protocol: (§1) RNA-sequencing analyses were performed to measure gene expression patterns in mouse AGM treated with cyclic strain or pharmacological modulators. Using computational algorithms, hierarchical clustering was performed of differentially expressed genes as well as measured their overrepresented biological processes and pathways. Gene expression clusters of differentially expressed genes were analyzed and their mean expression level across cell populations compared. Next, Venn comparison of up- and down-genes was constructed to analyze candidate(s) important for cyclic strain- or pharmacological modulator(s)-mediated the endothelial-to-HSC transition. Furthermore, Dnmt3b and Dnmt3a protein expressions were analyzed in nuclear fractions of mouse AGM cells using EqiQuick assay kits. Data are presented as mean±s.d. unless otherwise noted. Statistical analyses were performed by paired or un-paired Student's t-tests. Significance was set at P<0.05.
Total RNA from E11.5 mouse AGM explant cultures was isolated (control, stretch, Yoda1 and 4αPDD conditions) with the RNAeasy MiniKit (QIAGEN). Our cDNA libraries were generated by BGI Americas Corporation and sequenced with a HiSeq4000 device (Illumina) at eight samples per lane. We mapped our sequenced read fragments to the mouse reference genome GRCm38 (ENSEMBL release 69) using the Genomic Short-Read Nucleotide Alignment program (version 2012-07-20). DESeq2 and DEXSeq were used to test for differential expression (FDR=0.1) and differential exon use, respectively. Gene expression clusters of differentially expressed genes were analyzed and their mean expression level across cell populations compared. Next, Venn comparison was performed of up- and down-genes to analyze candidate(s) important for cyclic strain- or pharmacological modulator(s)-mediating the endothelial-to-HSC transition. Specifically, we performed hierarchical clustering with bootstrap analyses using the gplots package (Warners et al., 2017) in R (R Development Core Team, 2012). […]

Assay [3] has as its system Dnmt3a. Kind of assay: Dnmt3a protein level in nuclear fractions of E11.5 AGM cells. The class given is cell-based, mouse. The method, then: as §1
Nuclear extracts from AGM explants were harvested using an EpiQuik Nuclear Extraction Kit (Epigentek Group Inc.). Dnmt3b and Dnmt3a protein levels were analyzed using a colorimetric EpiQuik Assay Kit (Epigentek Group Inc.), according to the manufacturer's instructions. Concentration of Dnmt3b and Dnmt3a is relative to 1 μg of nuclear extract proteins.

For assay [4], the system named is human iPSC-derived hemogenic endothelial cells. Kind of assay: Yoda1 treatment of human iPSC-derived hemogenic endothelial cells: EHT and gene expression. Type of assay: cell-based. The source says:
To determine the role of Dnmt3b in the EHT, we analyzed the endothelial and hematopoietic gene expression levels using whole transcriptome analyses. […] To consolidate our findings, we further independently measured the transcript levels of endothelial and hematopoietic genes. […] In summary, pulsation-mediated Piezo1 activation enhances Dnmt3b expression to repress endothelial genes, stimulating the endothelial-to-HSC transition. To analyze the conserved role of PIEZO1-mediated mechanosensitive mechanisms in human hematopoiesis, we employed directed differentiation of constitutive RUNX1c:tdTomato human induced pluripotent stem cells (iPSCs) to hemogenic endothelial cells, and treated such hemogenic endothelial cells with Yoda1.
Embryoid body and hemogenic endothelium differentiation was performed as described in (Sugimura et al. 2017; Ditadi et al. 2015). Briefly, hiPSC colonies were dissociated with 0.05% trypsin for 5 min at 37° C., washed with PBS+2% FBS, and resuspended in StemPro-34 (Invitrogen, 10639-011) supplemented with L-glutamine (2 mM), penicillin/streptomycin ([…]), ascorbic acid (1 mM), human holo-Transferrin ([…], Sigma T0665), monothioglycerol (MTG, 0.4 mM), BMP4 (10 ng/ml), and Y-27632 (10 μM). Five million cells were seeded into 10 cm dishes (Ezsphere, Asahi Glass) for the spheroid formation. On Day 1, bFGF (5 ng/ml) and BMP4 (10 ng/ml) was added to the medium. On Day 2, the media was changed with the StemPro-34 supplemented with SB431542 (6 μM), CHIR99021 (3 μM), bFGF (5 ng/ml), and BMP4 (10 ng/ml). On Day 3, the medium was replaced with StemPro-34 supplemented with VEGF (15 ng/ml) and bFGF (10 ng/ml). On day 6, the medium was changed to StemPro-34 supplemented with bFGF (5 ng/ml), VEGF (15 ng/ml), interleukin (IL)-6 (10 ng/ml), IGF-1 (25 ng/ml), IL-11 (5 ng/ml), SCF (50 ng/ml) and EPO (2IU). The cells were maintained in a 5% CO2, 5% O2 and 95% humidity incubator. All cytokines were purchased from Peprotech.

Where [5] appears, read: human iPSC-derived hemogenic endothelial cells.

Entries after “also recorded” stand apart in the source; their conditions may differ.

Consider `Clc1cccc(Cl)c1CSc1nnc(-c2cnccn2)s1` [Yoda1, 2-[5-[[(2,6-Dichlorophenyl)methyl]thio]-1,3,4-thiadiazol-2-yl]-pyrazine], for which, in assay [1] (25 μM), the GEMM formation entry is “enhances GEMM formation”. Also, the “hematopoietic colony formation (endothelial-to-hematopoietic transition)” value in assay [1] (E11.5 AGM cells vs. control) is listed as “stimulates the endothelial-to-hematopoietic transition”. Further, in assay [2], the “Dnmt3b and Gimap6 transcript expression (Venn comparison of up-regulated genes)” value was “specifically stimulate Dnmt3b transcript expression and Gimap6 transcript expression”; the “expression of endothelial genes” value was “diminished expression of endothelial genes; also recorded: repress the expression of endothelial genes”; the “expression of hematopoietic genes” value is “elevated expression of hematopoietic genes; also recorded: stimulating the expression of hematopoietic genes”. Besides, the Dnmt3a protein expression result in assay [3] is reported as “not Dnmt3a; also recorded: without impacting the expression of Dnmt3a”. For the same compound, the human endothelial-to-hematopoietic transition entry in assay [4] (RUNX1c:tdTomato human iPSC-derived hemogenic endothelial cells) is given as “stimulated the human endothelial-to-hematopoietic transition”. In assay [4] (setting [5]), the DNMT3A expression entry is given as “not DNMT3A expression”; the DNMT3B expression entry is on record as “enhanced DNMT3B expression”; the “expression of endothelial genes (VEGFA, HEY2, GPR116, GNA13, CDH5, PLXND1)” value is given as “silenced endothelial genes”; the “expression of hematopoietic genes (RUNX1, SPI1, CEBPA, TAL1, GATA2)” value is given as “induced the expression of hematopoietic genes”.
